Measured values taken from the supplement of paper PMC11061612.

Columns and labels:
Assay in all cases: Bliss excess, mean over the matrix (fraction); higher = more synergy
AM-38 (Glioblastoma) = test system: AM-38 (Glioblastoma)
Method in brief: (§1)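 After 24 hours at 37°C and 5% CO2 in 1536-well plates, cells in DMEM/F12 or RPMI plus 10% FBS received two-drug dose matrices for 72 hours. Viability came from CellTiter-Glo 2.0 luminescence and was scaled as inhibition, anchored at 0 by vehicle wells and at 1 by blank wells. Combination Emax is taken as the second-highest inhibition in the matrix, and Bliss excess as the observed combination effect less EA + EB − EA·EB, with EA and EB the single-agent effects.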

[1] = test system: BHT-101 (Thyroid Gland Carcinoma)
Method in brief: as §1

[2] = test system: BxPC-3 (Pancreatic Carcinoma)
Method in brief: as §1

[3] = test system: IA-LM (Non-Small Cell Lung Carcinoma)
Method in brief: as §1

IST-MEL1 (Melanoma) = test system: IST-MEL1 (Melanoma)
Method in brief: as §1

[4] = test system: KP-4 (Pancreatic Carcinoma)
Method in brief: as §1

[5] = test system: MDA-MB-415 (Breast Carcinoma)
Method in brief: as §1

[6] = test system: MONO-MAC-6 (Acute Myeloid Leukemia)
Method in brief: as §1

[7] = test system: NAMALWA (Burkitt's Lymphoma)
Method in brief: as §1

NCI-H2373 (Mesothelioma) = test system: NCI-H2373 (Mesothelioma)
Method in brief: as §1

[8] = test system: PL4 (Pancreatic Carcinoma)
Method in brief: as §1

[9] = test system: Raji (Burkitt's Lymphoma)
Method in brief: as §1

[10] = test system: SCC-4 (Oral Cavity Carcinoma)
Method in brief: as §1

[11] = test system: SK-CO-1 (Colorectal Carcinoma)
Method in brief: as §1

[12] = test system: SNU-423 (Hepatocellular Carcinoma)
Method in brief: as §1

[13] = test system: SUP-M2 (T-Cell Non-Hodgkin's Lymphoma)
Method in brief: as §1

[14] = test system: SiHa (Cervical Carcinoma)
Method in brief: as §1

[15] = test system: T84 (Colorectal Carcinoma)
Method in brief: as §1

WM35 (Melanoma) = test system: WM35 (Melanoma)
Method in brief: as §1

[16] = test system: ZR-75-30 (Breast Carcinoma)
Method in brief: as §1

Work on `CC1(C)CCC(CN2CCN(c3ccc(C(=O)NS(=O)(=O)c4ccc(NCC5CCOCC5)c([N+](=O)[O-])c4)c(Oc4cnc5[nH]ccc5c4)c3)CC2)=C(c2ccc(Cl)cc2)C1` [Venetoclax] + C[C@@H]1COCCN1C2=NC(=NC(=C2)C3(CC3)[S@](=N)(=O)C)C4=C5C=CNC5=NC=C4 [AZD6738] (first compound max 1 µM, 7x7, partner max 10 µM) yielded a Bliss excess (AM-38 (Glioblastoma)) of 0.0223, a Bliss excess [1] of -0.0888 and a Bliss excess [2] of 0.0101. For the same molecule, the Bliss excess [3] was -0.01, the Bliss excess (IST-MEL1 (Melanoma)) was -0.019 and the Bliss excess [4] was -0.0282. It also gave a Bliss excess [5] of -0.0584, a Bliss excess [6] of -0.0322 and a Bliss excess [7] of -0.0029. It also gave a Bliss excess (NCI-H2373 (Mesothelioma)) of -0.0052, a Bliss excess [8] of -0.0918 and a Bliss excess [9] of 0.0091. It also gave a Bliss excess [10] of -0.134, a Bliss excess [11] of -0.103 and a Bliss excess [12] of -0.0801. For the same molecule, the Bliss excess [13] was 0.0239, the Bliss excess [14] was -0.0036 and the Bliss excess [15] was -0.0134. It also gave a Bliss excess (WM35 (Melanoma)) of 0.023 and a Bliss excess [16] of -0.0359.
`CC1(C)CCC(CN2CCN(c3ccc(C(=O)NS(=O)(=O)c4ccc(NCC5CCOCC5)c([N+](=O)[O-])c4)c(Oc4cnc5[nH]ccc5c4)c3)CC2)=C(c2ccc(Cl)cc2)C1` [Venetoclax] + C[C@@H](Nc1cc(F)cc(F)c1)c1cc(C(=O)N(C)C)cc2c(=O)cc(N3CCOCC3)oc12 [AZD8186] (first compound max 1 µM, 7x7, partner max 3 µM) gave a Bliss excess (AM-38 (Glioblastoma)) of -0.0259, a Bliss excess [1] of 0.0031 and a Bliss excess [2] of -0.0115. The Bliss excess [3] was -0.0416, the Bliss excess (IST-MEL1 (Melanoma)) was 0.0253 and the Bliss excess [4] was -0.0205. It also gave a Bliss excess [5] of -0.0128, a Bliss excess [6] of 0.0531 and a Bliss excess [7] of 0.0287. The Bliss excess (NCI-H2373 (Mesothelioma)) was -0.0473, the Bliss excess [8] was -0.049 and the Bliss excess [9] was 0.0114. For the same molecule, the Bliss excess [10] was -0.119, the Bliss excess [11] was -0.0782 and the Bliss excess [12] was 0.0364. For the same molecule, the Bliss excess [13] was 0.0106, the Bliss excess [14] was 0.0009 and the Bliss excess [15] was -0.0284. The Bliss excess (WM35 (Melanoma)) was -0.0332 and the Bliss excess [16] was -0.0201.
Work on `CC1(C)CCC(CN2CCN(c3ccc(C(=O)NS(=O)(=O)c4ccc(NCC5CCOCC5)c([N+](=O)[O-])c4)c(Oc4cnc5[nH]ccc5c4)c3)CC2)=C(c2ccc(Cl)cc2)C1` [Venetoclax] + Cc1cc2ncnn2cc1Nc1ncc2c(n1)n(C1CCOCC1)c(=O)n2C [AZD7648] (first compound max 1 µM, 7x7, partner max 10 µM) yielded a Bliss excess (AM-38 (Glioblastoma)) of -0.0098, a Bliss excess [1] of -0.0011 and a Bliss excess [2] of -0.0374. It also gave a Bliss excess [3] of 0.0086, a Bliss excess (IST-MEL1 (Melanoma)) of -0.0486 and a Bliss excess [4] of -0.061. The Bliss excess [5] was -0.117, the Bliss excess [6] was -0.025 and the Bliss excess [7] was -0.0246. For the same molecule, the Bliss excess (NCI-H2373 (Mesothelioma)) was -0.056, the Bliss excess [8] was -0.0297 and the Bliss excess [9] was 0.0289. It also gave a Bliss excess [10] of -0.0674, a Bliss excess [11] of -0.018 and a Bliss excess [12] of -0.111. It also gave a Bliss excess [13] of 0.0218, a Bliss excess [14] of -0.0549 and a Bliss excess [15] of -0.0267. It also gave a Bliss excess (WM35 (Melanoma)) of -0.0209 and a Bliss excess [16] of -0.0381.
For `CC1(C)CCC(CN2CCN(c3ccc(C(=O)NS(=O)(=O)c4ccc(NCC5CCOCC5)c([N+](=O)[O-])c4)c(Oc4cnc5[nH]ccc5c4)c3)CC2)=C(c2ccc(Cl)cc2)C1` [Venetoclax] + Cn1cnc2c(F)c(Nc3ccc(Br)cc3Cl)c(C(=O)NOCCO)cc21 [Selumetinib] (first compound max 1 µM, 7x7, partner max 3 µM), the Bliss excess (AM-38 (Glioblastoma)) was -0.108, the Bliss excess [1] was -0.0959 and the Bliss excess [2] was 0.0009. For the same molecule, the Bliss excess [3] was -0.0248, the Bliss excess (IST-MEL1 (Melanoma)) was -0.0654 and the Bliss excess [4] was -0.0521. The Bliss excess [5] was -0.0498, the Bliss excess [6] was -0.0192 and the Bliss excess [7] was 0.0019. It also gave a Bliss excess (NCI-H2373 (Mesothelioma)) of -0.0468, a Bliss excess [8] of -0.0236 and a Bliss excess [9] of -0.003. It also gave a Bliss excess [10] of -0.0931, a Bliss excess [11] of 0.001 and a Bliss excess [12] of -0.11. For the same molecule, the Bliss excess [13] was 0.0165, the Bliss excess [14] was -0.0516 and the Bliss excess [15] was -0.061. The Bliss excess (WM35 (Melanoma)) was 0.0543 and the Bliss excess [16] was -0.034.
